In US9303000B2, “Olefin containing nuclear transport modulators and uses thereof” (KARYOPHARM THERAPEUTICS INC., priority 2011, dated 2016):
Where two headings read alike, the source gives them in different places.

What was measured:
Crm1 [1] = target: T1, Crm1 (Homo sapiens, UniProt O14980); experiment: Inhibition of nuclear export (RevGFP assay) / MTT cytotoxicity, Table 1
Procedure: (§1) The evaluation of the affinity of compounds for the Crm1 protein was determined in the RevGFP assay.
(§2) In this assay, U2OS-RevGFP cells are seeded onto clear-bottom, black, 384-well plates the day before the experiment. Compounds are serially diluted 1:2 starting from 40 μM in a separate 384-well plate in DMEM, and then transferred onto cells. Cells are incubated with compound for ˜1 hr before fixation with 3.7% formaldehyde and nuclei staining with Hoechst 33258. The amount of GFP in cell nuclei will be measured and compound IC50s determined (Kau et al, 2003).
(§3) The MTT cell proliferation assay was used to study the cytotoxic properties of the compounds. The assay was performed according to the method described by Roche Molecular Biochemicals with minor modifications. The assay is based on the cleavage of the tetrazolium salt, MTT, in the presence of an electron-coupling reagent. The water-insoluble formazan salt produced must be solubilized in an additional step. Cells, grown in a 96-well tissue culture plate, are incubated with the MTT solution for approximately 4 hours. After this incubation period, a water-insoluble formazan dye is formed. After solubilization, the formazan dye is quantitated using a scanning multi-well spectrophotometer (ELISA reader). […] The cells were seeded at 1.5×10^4 cells in each well of 96-well plate in 200 μL of fresh culture medium and were allowed to attach for overnight. The stock solutions of the compounds were diluted in cell culture medium to obtain eight concentrations of each drug, ranging from 1 nM to 20 μM. After 72 h of treatment the medium was aspirated and the cells were washed once with sterile 1×PBS. Each plate contained the samples, negative control and blank. The DMSO at less than 1% v/v was used as a negative control. […] The following formula was used to calculate the percent of inhibition: Inhibition (%)=(1−(ODo/OD))×100.

HCT-116 tumor cells = experiment: HCT-116 colorectal carcinoma xenograft model; assay type: in vivo, mice
Procedure: FIG. 1 is a graph depicting the results of an HCT-116 colorectal carcinoma xenograft model. HCT-116 cells were inoculated into female athymic Balb c. nu^+/nu^+ mice. Once tumors reached an average volume of 200 mm^3, the animals were dosed with vehicle, 25 mg/kg 5-fluorouracil intraperitoneally and 75 mg/kg I-29 subcutaneously.
FIG. 2 is a graph depicting the results of an HCT-116 colorectal carcinoma xenograft model. HCT-116 cells were inoculated into female athymic Balb c. nu^+/nu^+ mice. Once tumors reached an average volume of 100 mm^3 the animals were dosed with vehicle, 50 mg/kg 5-fluorouracil intraperitoneally and 50 and 100 mg/kg I-34 orally. […] Mice were euthanized on Day 26 due to 20% weight loss. At Day 37, I-34 administered QDX5/week at 50 mg/kg inhibited tumor growth by 85%.
Female balb c nude mice (nu/nu) aged 6 to 8 weeks were obtained from Charles River Laboratories and were randomly and prospectively divided into six groups of ten mice. Mice were inoculated s.c. in flanks with 1×10^6 HCT-116 tumor cells. When cells reached 100-200 mm^3, animals were randomized into treatment groups of 5-10 mice each, excluding mice with the largest and smallest tumors. Mice were treated with vehicle, standard of care drugs (5-FU) or compounds of the invention at the indicated doses and regimen. Animals' weights and condition were recorded daily, and tumors were measured daily. On Day 37 (2 hours after the final dose), all mice were sacrificed, plasma and tumor tissue were collected for PK/PD analysis. Tumors were divided in 4 sections (3, flash-frozen in separate vials and 1 fixed in formalin for paraffin block preparation).
HCT-116 Colorectal tumor cells (ATCC# CCL-247) were grown in the DMEM tissue culture media with 10% fetal bovine serum and 1% penicillin/streptomycin. Cells were routinely trypsinized and passaged 1:4. On the day of implantation, cells were washed in PBS, trypsinized and resuspended in complete media. Cells were washed 3× in serum free medium. Cells were resuspended to a density of 1×10^7 cells/ml prior to being implanted s.c. into mice in a volume of 0.1 mL using a 23G needle.
Tumors were monitored daily. Tumors appearing exceeding 1500 mm^3 were measured, and animals with tumors greater than 1500 mm^3 and/or tumors that became necrotic and/or hindered movement were euthanized. Tumors were measured twice weekly by measuring each tumor in 2 dimensions, along the largest dimension (length, L) and perpendicular to this dimension (width, W). Tumor weights were calculated using the standard formula: (L×W^2)/2. The mean tumor weight and standard error of the mean were calculated for each group at each time point.
Statistical differences between treatment groups were determined using appropriate statistical techniques. A one-way ANOVA or ANOVA on ranks was used to evaluate the area-under the curve for weight gain and tumor volume.

Crm1 [2] = target: T1, Crm1
Procedure: as §1, §2, §3

MM1.S cells = experiment: MM1.S multiple myeloma xenograft model; assay type: in vivo, mice
Procedure: FIG. 3 is a graph depicting the results of a MM1.S multiple myeloma model. MM1.S cells were inoculated into female athymic Balb c. nu^+/nu^+mice. Once tumors reached an average volume of 780 mm^3 the animals were dosed with vehicle and 75 mg/kg I-1 subcutaneously. Following 3 doses I-1 caused 50% reduction in tumor growth in a statistically significant manner.
FIG. 4 is a graph depicting the results of a MM1.S multiple myeloma model. MM1.S cells were inoculated into female athymic nu^+/nu^+ mice. Once tumors reached an average volume of 1400 mm^3 the animals were dosed with vehicle or 50 mg/kg I-29 subcutaneously every day. On the fourth day of dosing, vehicle group animals (n=10) reached an average volume of 2300 mm^3 and had to be euthanized due to tumor burden and poor health.
105 female athymic nude mice (8-9 weeks old, Harlan, USA) were grouped into […]. Animals were randomized such that the group average tumor volume was between 100-200 mm^3. Group average body weights were matched as closely as possible once average tumor volumes were randomized. The live-phase portion of this study will be 28 days in duration from the start of until the average group tumor volume reaches 2,000 mm^3, whichever comes first. Mice are to be euthanized with samples collected as and when they individually reach a tumor volume of approximately 2,000 mm^3.
MM1s Cell Culture. […]
Tumor volumes were monitored three times per week throughout the study (typically Monday, Wednesday and Friday) and calculated using the formula: Tumor volume=½(a^2 b); where a=width (smallest dimension) and b=length. […]
Animals were monitored as a group and their tumor volumes were measured three times per week at the same time of day. […]

[3] = 50 mg/kg subcutaneously every day, following 8 doses, FIG. 4

T1 sequence (O14980 whole entry): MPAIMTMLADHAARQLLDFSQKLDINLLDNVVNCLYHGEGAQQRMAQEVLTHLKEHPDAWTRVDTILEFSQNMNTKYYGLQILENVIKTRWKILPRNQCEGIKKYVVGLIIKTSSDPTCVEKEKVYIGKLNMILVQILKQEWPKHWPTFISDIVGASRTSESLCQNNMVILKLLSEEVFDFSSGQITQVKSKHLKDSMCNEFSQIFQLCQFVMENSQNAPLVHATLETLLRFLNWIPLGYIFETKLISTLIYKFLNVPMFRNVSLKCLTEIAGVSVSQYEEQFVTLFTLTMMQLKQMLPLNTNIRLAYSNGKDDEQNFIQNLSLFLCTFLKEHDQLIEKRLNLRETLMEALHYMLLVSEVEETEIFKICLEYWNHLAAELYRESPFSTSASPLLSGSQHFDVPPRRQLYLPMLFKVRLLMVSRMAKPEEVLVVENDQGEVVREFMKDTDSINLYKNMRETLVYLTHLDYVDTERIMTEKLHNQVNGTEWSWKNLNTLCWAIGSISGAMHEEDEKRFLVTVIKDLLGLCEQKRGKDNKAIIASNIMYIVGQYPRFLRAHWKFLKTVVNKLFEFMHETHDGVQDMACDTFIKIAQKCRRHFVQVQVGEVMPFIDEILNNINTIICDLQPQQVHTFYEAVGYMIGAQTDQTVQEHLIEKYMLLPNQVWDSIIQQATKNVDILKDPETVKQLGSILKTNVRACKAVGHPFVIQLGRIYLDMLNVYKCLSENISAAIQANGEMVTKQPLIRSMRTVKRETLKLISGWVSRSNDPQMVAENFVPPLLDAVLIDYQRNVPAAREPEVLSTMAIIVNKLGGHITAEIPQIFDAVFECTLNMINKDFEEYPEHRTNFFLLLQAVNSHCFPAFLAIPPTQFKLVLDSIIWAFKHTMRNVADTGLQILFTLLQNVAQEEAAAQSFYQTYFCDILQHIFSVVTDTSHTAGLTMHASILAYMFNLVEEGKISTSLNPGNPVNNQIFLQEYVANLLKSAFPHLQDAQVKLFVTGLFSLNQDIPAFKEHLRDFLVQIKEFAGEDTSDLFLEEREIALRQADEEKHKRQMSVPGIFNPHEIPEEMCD

Molecule | IC50 (Crm1 [1]) | further results
Clc1cccc(-c2ncn(/C=C\c3nnco3)n2)c1 [Compound I-26, (Z)-2-(2-(3-(3-chlorophenyl)-1H-1,2,4-triazol-1-yl)vinyl)-1,3,4-oxadiazole] | < 1000 nM | –
CC(C)Oc1cc(-c2ncn(/C=C\c3ccccc3)n2)cc(C(F)(F)F)c1 [Compound I-39, (Z)-3-(3-isopropoxy-5-(trifluoromethyl)phenyl)-1-styryl-1H-1,2,4-triazole] | > 10000 nM | –
CC(C)Oc1cc(Cl)cc(-c2ncn(/C=C\c3nnco3)n2)c1 [Compound I-28, (Z)-2-(2-(3-(3-chloro-5-isopropoxyphenyl)-1H-1,2,4-triazol-1-yl)vinyl)-1,3,4-oxadiazole] | < 1000 nM | –
COc1cc(-c2ncn(/C=C\c3ccccn3)n2)cc(C(F)(F)F)c1 [Compound I-21, (Z)-2-(2-(3-(3-methoxy-5-(trifluoromethyl)phenyl)-1H-1,2,4-triazol-1-yl)vinyl)pyridine] | > 10000 nM | –
Clc1cccc(-c2ncn(/C=C/c3nnco3)n2)c1 [Compound I-27, (E)-2-(2-(3-(3-chlorophenyl)-1H-1,2,4-triazol-1-yl)vinyl)-1,3,4-oxadiazole] | 1000 to 10000 nM | –
O=c1[nH]cc(F)c(=O)[nH]1 [Compound 5-FU, 5-fluorouracil, reference compound] | – | efficacy on tumor growth (HCT-116 tumor cells; 25 mg/kg intraperitoneally, 3 weeks of dosing, FIG. 1): did not display efficacy; inhibition of tumor growth compared to vehicle group (HCT-116 tumor cells; 50 mg/kg intraperitoneally, Day 37, FIG. 2): no inhibition of tumor growth was observed; condition of animals (HCT-116 tumor cells; 50 mg/kg intraperitoneally, by Day 37, FIG. 2): euthanized due to poor condition; inhibition of tumor growth (HCT-116 tumor cells; 50 mg/kg intraperitoneally, first 3 weeks, FIG. 2): inhibited tumor growth during the first 3 weeks in a statistically significant manner
COc1cc(-c2ncn(/C=C\c3ccccc3)n2)cc(C(F)(F)F)c1 [Compound I-38, (Z)-3-(3-methoxy-5-(trifluoromethyl)phenyl)-1-styryl-1H-1,2,4-triazole] | > 10000 nM | –
Oc1cc(-c2ncn(/C=C\c3nnco3)n2)cc(C(F)(F)F)c1 [Compound I-36, (Z)-3-(1-(2-(1,3,4-oxadiazol-2-yl)vinyl)-1H-1,2,4-triazol-3-yl)-5-(trifluoromethyl)phenol] | < 1000 nM | –
CS(=O)(=O)c1cc(-c2ncn(/C=C\c3nnco3)n2)cc(C(F)(F)F)c1 [Compound I-33, (Z)-2-(2-(3-(3-(methylsulfonyl)-5-(trifluoromethyl)phenyl)-1H-1,2,4-triazol-1-yl)vinyl)-1,3,4-oxadiazole] | < 1000 nM | –
N#Cc1cc(-c2ncn(/C=C\c3nnco3)n2)cc(C(F)(F)F)c1 [Compound I-35, (Z)-3-(1-(2-(1,3,4-oxadiazol-2-yl)vinyl)-1H-1,2,4-triazol-3-yl)-5-(trifluoromethyl)benzonitrile] | < 1000 nM | –
(Z)-2-(2-(3-(3-chloro-5-(trifluoromethoxy)phenyl)-1H-1,2,4-triazol-1-yl)vinyl)-1,3,4-oxadiazole [Compound I-32] | – | IC50 (Crm1 [2]): < 1000 nM
FC(F)(F)c1cc(-c2ncn(/C=C\c3nnco3)n2)cc(C(F)(F)F)c1 [Compound I-34, (Z)-2-(2-(3-(3,5-bis(trifluoromethyl)phenyl)-1H-1,2,4-triazol-1-yl)vinyl)-1,3,4-oxadiazole] | < 1000 nM | inhibition of tumor growth (HCT-116 tumor cells; 50 mg/kg orally QDX5/week, Day 37, FIG. 2): 85%; weight loss (HCT-116 tumor cells; 100 mg/kg orally QDX5/week, Day 26, mice euthanized, FIG. 2): 20%; reduction of tumor growth (HCT-116 tumor cells; 100 mg/kg orally QDX5/week, Day 26, FIG. 2): complete reduction of tumor growth
CC(C)Oc1cc(-c2ncn(/C=C\c3ccccn3)n2)cc(C(F)(F)F)c1 [Compound I-37, (Z)-2-(2-(3-(3-isopropoxy-5-(trifluoromethyl)phenyl)-1H-1,2,4-triazol-1-yl)vinyl)pyridine] | < 1000 nM | –
CC(C)Oc1cc(-c2ncn(/C=C\c3nnco3)n2)cc(C(F)(F)F)n1 [Compound I-30, (Z)-2-(2-(3-(2-isopropoxy-6-(trifluoromethyl)pyridin-4-yl)-1H-1,2,4-triazol-1-yl)vinyl)-1,3,4-oxadiazole] | < 1000 nM | –
COc1cc(-c2ncn(/C=C\c3nnco3)n2)cc(C(F)(F)F)c1 [Compound I-1, (Z)-2-(2-(3-(3-methoxy-5-(trifluoromethyl)phenyl)-1H-1,2,4-triazol-1-yl)vinyl)-1,3,4-oxadiazole] | < 1000 nM | reduction in tumor growth (MM1.S cells; 75 mg/kg subcutaneously, following 3 doses, FIG. 3): 50%
CC(C)Oc1cc(-c2ncn(/C=C\c3nnco3)n2)cc(C(F)(F)F)c1 [Compound I-29, (Z)-2-(2-(3-(3-isopropoxy-5-(trifluoromethyl)phenyl)-1H-1,2,4-triazol-1-yl)vinyl)-1,3,4-oxadiazole] | < 1000 nM | reduction in tumor growth (HCT-116 tumor cells; 75 mg/kg subcutaneously, 5 times/week, following 3 weeks of dosing, FIG. 1): 50%; animals still alive (survival) (MM1.S cells; [3]): 10 out of 12; reduction in tumor growth (MM1.S cells; [3]): 50%
CC(C)Oc1cc(-c2ncn(/C=C\c3nnco3)n2)cc(Cl)n1 [Compound I-31, (Z)-2-(2-(3-(2-chloro-6-isopropoxypyridin-4-yl)-1H-1,2,4-triazol-1-yl)vinyl)-1,3,4-oxadiazole] | < 1000 nM | –
COc1cc(-c2ncn(/C=C\c3nnc(C)o3)n2)cc(C(F)(F)F)c1 [Compound I-2, (Z)-2-(2-(3-(3-methoxy-5-(trifluoromethyl)phenyl)-1H-1,2,4-triazol-1-yl)vinyl)-5-methyl-1,3,4-oxadiazole] | < 1000 nM | –
COc1cc(-c2ncn(/C=C\c3nnco3)n2)cc(Cl)n1 [Compound I-10, (Z)-2-(2-(3-(2-chloro-6-methoxypyridin-4-yl)-1H-1,2,4-triazol-1-yl)vinyl)-1,3,4-oxadiazole] | < 1000 nM | –
